According to patent US12622893B2, “Alpha2 adrenergic agonist codrugs conjugated with muscarinic agonist drugs” (ADS THERAPEUTICS LLC, priority 2021, dated 2026):

Tests used:
[1] = In vitro metabolic stability in rabbit cornea homogenates; assay type: in vitro ADME, Dutch Belted rabbits; conditions: 1 μM test compound, 0.3 mg/mL corneal protein homogenate, pH=6.0, 37° C.; for Rate of formation Metabolite 1: metabolite 1 = pilocarpine; for Rate of formation Metabolite 2: metabolite 2 as named under each value (Dexmedetomidine metabolite, brimonidine metabolite or brimonidine)
Experimental: Dutch Belted rabbits will be euthanized with an overdose of sodium pentobarbital. The corneas will be collected and homogenized in ice-cold potassium chloride solution (pH=7.4). The homogenate will be centrifuged at 755×g for 30 min at 4° C. and aliquots of the supernatant will be stored at or below −70° C. until metabolism experiments will be conducted. Prior to storing the homogenates, an aliquot will be removed for the determination of protein concentrations by calculating the […] using a spectrophotometer. All metabolic stability experiments will be performed in triplicate in 96-well plate format. The final incubation mixture will contain 1 μM test compound, 0.3 mg/mL corneal protein homogenate in a final volume of 0.5 mL 0.1 M potassium phosphate buffer (pH=6.0). The final percentage of solvent in the incubation will be less than 1.0% to prevent inhibition of enzymatic activity. Following a pre-incubation at 37° C., test article will be added to initiate the reaction. At designated time points (typically less than 60 minutes to capture the linear range of metabolite formation), 0.05 mL aliquots will be removed from the incubation mixtures using a clean pipet tip and immediately placed in organic solvent to stop any esterase activity. The hydrolysis to the metabolites will be confirmed to be due to esterase activity and not chemical stability. The samples will be analyzed by liquid chromatography with mass spectrometry (LC-MS/MS) detection to determine the metabolite concentrations resulting from the metabolism of the hybrid compounds. Internal standards were used to compensate for variability from sample processing, chromatographic elution, mass spectrometer response and ion suppression by matrix components.

rabbit pupil [2] = experiment: In vivo pharmacology study of measuring pupil size (Example 27); parameters: species or system Dutch belted rabbits; conditions: FIG. 2; 0.5% and 2%
Experimental: (§1) Three (3) female Dutch belted rabbits were randomly assigned to each group by Provantis or Excel based on body weight. Each animal was dosed 40 μL of testing article (see Table 4 below) to both eyes. The pupil sizes of both eyes were measured at baseline (30 minutes before dosing), 0.5 h, 1 h, 2 h, 3 h, 4 h, 6 h, 8 h after dosing. The pupil size measurement data were analyzed for efficacy of pupil constriction. CBT compounds tested are co-drugs of pilocarpine-alpha adrenergic agonists as described above. The vehicle used to dissolve CBT compounds is the same as the vehicle used in the negative control in group 1. Positive control 1 is 1.25% Pilocarpine HCl in an aqueous buffer. Positive control 2 is 3.0% Carbachol and 0.2% Brimonidine in an aqueous buffer. This control can result in a large pupil constrictive effect.

rabbit pupil [3] = experiment: In vivo pharmacology study of measuring pupil size (Example 28); parameters: species or system Dutch belted rabbits; conditions: FIG. 3; for efficacy of pupil constriction compared with positive control 1: positive control 1 is 1.25% Pilocarpine HCl; for potency of pupil constriction compared with other co-drugs: all co-drugs at 1%
Experimental: as §1, with “Table 5” for “Table 4”, “8 h, 24” for “8”, “constriction. Co-drug” for “constriction. CBT”, “compounds” for “compounds tested”, “dissolve Co-drug” for “dissolve CBT”

[4] = In vivo ocular pharmacokinetics following a single topical ophthalmic administration; parameters: species or system New Zealand White Rabbits; conditions: 0.5% (w/v) solution; for Conc. of Co-drug in Cornea Tissue: both eyes
Experimental: Rabbits will be dosed once by ocular instillation to both eyes with each compound formulated in a 0.5% (w/v) solution. At 0.25, 0.5, 1, 2, 6 and 10 hours post dose, cornea, aqueous humor, conjunctiva and eyelid margin will be collected and stored at approximately −70° C. until bioanalysis. Ocular tissue samples will be analyzed by liquid chromatography with mass spectrometry detection to determine the parent and metabolite (pilocarpine and brimonidine) concentrations resulting from the metabolism of ester linked co-drugs. Internal standards will be used to compensate for variability from sample processing, chromatographic elution, mass spectrometer response and ion suppression by matrix components. […]

[5] = 0.25 hr after dosing the co-drug
[6] = 0.5 hr after dosing the co-drug

**Q.** For `CC[C@H](C(=O)OCc1cccc([C@H](C)c2c[nH]cn2)c1C)[C@H](CO)Cc1cncn1C` [Compound-1, 3-((S)-1-(1H-imidazol-4-yl)ethyl)-2-methylbenzyl (2S,3R)-2-ethyl-4-hydroxy-3-((1-methyl-1H-imidazol-5-yl)methyl)butanoate], which “Rate of formation Metabolite 1” value [1] is on record?
**A.** 5.56 ± 0.43 nM/min/mg

**Q.** And the “Rate of formation Metabolite 2” value [1]?
**A.** 3.52 ± 0.23 nM/min/mg

**Q.** With `CC[C@H](C(=O)OCc1cccc([C@H](C)c2c[nH]cn2)c1C)[C@H](COC(C)=O)Cc1cncn1C` [Compound-2, 3-((S)-1-(1H-imidazol-4-yl)ethyl)-2-methylbenzyl (2S,3R)-4-acetoxy-2-ethyl-3-((1-methyl-1H-imidazol-5-yl)methyl)butanoate] as the compound, how does the “Rate of formation Metabolite 1” value [1] read?
**A.** 4.34 ± 0.11 nM/min/mg

**Q.** What about the “Rate of formation Metabolite 2” value [1] of the same compound?
**A.** 2.87 ± 0.78 nM/min/mg

**Q.** What about the “dose relation of pupil constriction” value (rabbit pupil [2]) of the same compound?
**A.** dose-related effects

**Q.** Which “Rate of formation Metabolite 1” value [1] does the source give for `CC[C@H](C(=O)OCOC(=O)N1CCN=C1Nc1ccc2[nH]cnc2c1Br)[C@H](COC(C)=O)Cc1cncn1C` [Compound-4, (((2S,3R)-4-acetoxy-2-ethyl-3-((1-methyl-1H-imidazol-5-yl)methyl)butanoyl)oxy)methyl 2-((4-bromo-1H-benzo[d]imidazol-5-yl)amino)-4,5-dihydro-1H-imidazole-1-carboxylate] here?
**A.** 5.87 ± 0.97 nM/min/mg

**Q.** And the “Rate of formation Metabolite 2” value [1]?
**A.** 6.34 ± 0.07 nM/min/mg

**Q.** Which “efficacy of pupil constriction compared with positive control 1” value (rabbit pupil [3]) does the source give for `CC[C@H](C(=O)N1CCN/C1=N/c1ccc2nccnc2c1Br)[C@H](COC(C)=O)Cc1cncn1C` [Compound-16, (2R,3S)-3-((Z)-2-((5-bromoquinoxalin-6-yl)imino)imidazolidine-1-carbonyl)-2-((1-methyl-1H-imidazol-5-yl)methyl)pentyl acetate] here?
**A.** efficacies similar to that of positive control 1

**Q.** What about the “potency of pupil constriction compared with other co-drugs” value (rabbit pupil [3]) of the same compound?
**A.** better potency than Compound-15 and Compound-19

**Q.** For `CC[C@H](C(=O)N1CCN/C1=N/c1ccc2nccnc2c1Br)[C@H](COC(=O)C(C)(C)C)Cc1cncn1C` [Compound-20, (2R,3S)-3-((Z)-2-((5-bromoquinoxalin-6-yl)imino)imidazolidine-1-carbonyl)-2-((1-methyl-1H-imidazol-5-yl)methyl)pentyl pivalate], which “efficacy of pupil constriction compared with positive control 1” value (rabbit pupil [3]) is on record?
**A.** efficacies similar to that of positive control 1

**Q.** What about the “potency of pupil constriction compared with other co-drugs” value (rabbit pupil [3]) of the same compound?
**A.** better potency than Compound-15 and Compound-19

**Q.** For `CC[C@H](C(=O)OCOC(=O)N1CCN=C1Nc1ccc2[nH]cnc2c1Br)[C@H](CO)Cc1cncn1C` [compound 3, (((2S,3R)-2-ethyl-4-hydroxy-3-((1-methyl-1H-imidazol-5-yl)methyl)butanoyl)oxy)methyl 2-((4-bromo-1H-benzo[d]imidazol-5-yl)amino)-4,5-dihydro-1H-imidazole-1-carboxylate], which “Rate of formation Metabolite 1” value [1] is on record?
**A.** 8.86 ± 0.13 nM/min/mg

**Q.** What about the “Rate of formation Metabolite 2” value [1] of the same compound?
**A.** 1.23 ± 0.03 nM/min/mg

**Q.** What does the source list for `CC[C@H](C(=O)OCOC(=O)N1CCN=C1Nc1ccc2nccnc2c1Br)[C@H](CO)Cc1cncn1C` [compound 5, (((2S,3R)-2-ethyl-4-hydroxy-3-((1-methyl-1H-imidazol-5-yl)methyl)butanoyl)oxy)methyl 2-((5-bromoquinoxalin-6-yl)amino)-4,5-dihydro-1H-imidazole-1-carboxylate]?
**A.** Rate of formation Metabolite 1 [1]: 2.13 ± 0.24 nM/min/mg; Rate of formation Metabolite 2 [1]: 4.98 ± 0.34 nM/min/mg

**Q.** For `CC[C@H](C(=O)OCOC(=O)N1CCN=C1Nc1ccc2nccnc2c1Br)[C@H](COC(C)=O)Cc1cncn1C` [compound 6, (((2S,3R)-4-acetoxy-2-ethyl-3-((1-methyl-1H-imidazol-5-yl)methyl)butanoyl)oxy)methyl 2-((5-bromoquinoxalin-6-yl)amino)-4,5-dihydro-1H-imidazole-1-carboxylate], which “Rate of formation Metabolite 1” value [1] is on record?
**A.** 7.43 ± 0.27 nM/min/mg

**Q.** And the “Rate of formation Metabolite 2” value [1]?
**A.** 1.98 ± 0.09 nM/min/mg

**Q.** What about the “Conc. of Brimonidine (Metabolite 2) in Cornea Tissue” value (shortened to “Conc. of Brimonidine”) [4, 5] of the same compound?
**A.** 24 ± 12 ng/mL

**Q.** What about the “Conc. of Pilocarpine (Metabolite 1) in Cornea Tissue” value (shortened to “Conc. of Pilocarpine”) [4, 5] of the same compound?
**A.** 39 ± 37 ng/mL

**Q.** What about the “Conc. of Co-drug in Cornea Tissue” value ([4]; 0.25 hr post dose) of the same compound?
**A.** 7238 ± 345 ng/mL

**Q.** What about the “Conc. of Brimonidine” value [4, 6] of the same compound?
**A.** 78 ± 54 ng/mL

**Q.** What about the “Conc. of Pilocarpine” value [4, 6] of the same compound?
**A.** 139 ± 78 ng/mL

**Q.** And the “Conc. of Co-drug in Cornea Tissue” value ([4]; 0.5 hr post dose)?
**A.** 987 ± 245 ng/mL

**Q.** And the “Conc. of Brimonidine” value ([4]; 1 hr after dosing the co-drug)?
**A.** 98 ± 23 ng/mL

**Q.** What about the “Conc. of Pilocarpine” value ([4]; 1 hr after dosing the co-drug) of the same compound?
**A.** 379 ± 120 ng/mL

**Q.** And the “Conc. of Co-drug in Cornea Tissue” value ([4]; 1 hr post dose)?
**A.** 234 ± 33 ng/mL

**Q.** What about the “Conc. of Brimonidine” value ([4]; 2 hr after dosing the co-drug) of the same compound?
**A.** 139 ± 37 ng/mL

**Q.** What about the “Conc. of Pilocarpine” value ([4]; 2 hr after dosing the co-drug) of the same compound?
**A.** 539 ± 30 ng/mL

**Q.** And the “Conc. of Co-drug in Cornea Tissue” value ([4]; 2 hr post dose)?
**A.** 95 ± 19 ng/mL

**Q.** And the “Conc. of Brimonidine” value ([4]; 6 hr after dosing the co-drug)?
**A.** 339 ± 134 ng/mL

**Q.** What about the “Conc. of Pilocarpine” value ([4]; 6 hr after dosing the co-drug) of the same compound?
**A.** 754 ± 127 ng/mL

**Q.** And the “Conc. of Co-drug in Cornea Tissue” value ([4]; 6 hr post dose)?
**A.** 39 ± 37 ng/mL

**Q.** What about the “Conc. of Brimonidine” value ([4]; 10 hr after dosing the co-drug) of the same compound?
**A.** 539 ± 97 ng/mL

**Q.** And the “Conc. of Pilocarpine” value ([4]; 10 hr after dosing the co-drug)?
**A.** 867 ± 37 ng/mL

**Q.** What about the “Conc. of Co-drug in Cornea Tissue” value ([4]; 10 hr post dose) of the same compound?
**A.** 12 ± 3 ng/mL
